We go through 7 molecules from US20110218100A1 (priority 2005, published 2011).

In test [1] the test system is Fusarium graminearum. The class given is in vivo. Conditions: barley, curative spray, 125 g/ha of each active compound, evaluation 7 days after inoculation.
Test [2] deals with Erysiphe graminis f.sp. tritici. In words: Erysiphe test (wheat)/curative. Format: in vivo. Conditions: curative spray, 125 g/ha of each active compound, evaluation 8 days after inoculation. The method, then: (§1) Solvent: 50 parts by weight of N,N-dimethylacetamide Emulsifier: 1 part by weight of alkylaryl polyglycol ether
To produce a suitable preparation of active compound, 1 part by weight of active compound is mixed with the stated amounts of solvent and emulsifier, and the concentrate is diluted with water to the desired concentration.
To test for curative activity, young plants are sprayed with spores of Erysiphe graminis f.sp. tritici. 48 hours after the inoculation, the plants are sprayed with the preparation of active compound at the stated application rate. The plants are placed in a greenhouse at a temperature of about 20° C. and a relative atmospheric humidity of about 80% to promote the development of mildew pustules. Evaluation is carried out 8 days after the inoculation. What is determined is the efficacy in %. 0% means an efficacy which corresponds to that of the control, whereas an efficacy of 100% means that no infection is observed.

Test [3] concerns Penicillium brevicaule. In words: Penicillium brevicaule test (in vitro)/microtest. Conditions: 4 days incubation, optical density. Format: cell-based. The method, then: The microtest was performed in liquid medium with potato-dextrose broth (PDB) using microtitre plates.
The active compound is applied as the technical active substance dissolved in aceton.
A spore suspension of Penicillium brevicaule was used for inoculation. After 4 days of incubation by darkness under shaking (10 Hrz), the optical density in each cavity was evaluated with the aid of a microtitre plate reader.
0% means an efficacy which corresponds to that of the control, while an efficacy of 100% means that no fungal growth is observed.

Test [4] concerns Pyrenophora teres. Briefly: Pyrenophora teres (barley) test/curative. The class given is in vivo. The following applies: curative spray, 50 g/ha of each active compound, evaluation 8 days after inoculation. The method, then:
as §1
To produce a suitable preparation of active compound, 1 part by weight of active compound is mixed with the stated amounts of solvent and emulsifier, and the concentrate is diluted with water to the desired concentration or the active compound or a combination of active compounds in a commercially available formulation is diluted with water to the desired concentration.
To test for curative activity, young plants are sprayed with a conidia suspension of Pyrenophora teres. The plants remain for 48 hours in an incubation cabinet at 20° C. and a relative atmospheric humidity of 100% and are then sprayed with the preparation of active compound at the stated rate of application.
The plants are placed in a greenhouse at a temperature of approximately 20° C. and a relative atmospheric humidity of approximately 80%.
The test is evaluated 8 days after the inoculation.

In the case of `Cc1nn(C)c(F)c1C(=O)Nc1ccccc1C(C)CC(C)C` (centres unmarked) [(I-2), N-[2-(1,3-dimethylbutyl)phenyl]-5-fluoro-1,3-dimethyl-1H-pyrazole-4-carboxamide], the “Efficacy in % found” value came out at 42% in test [1] and 0% in test [2]. For the same molecule, the Efficacy in % in test [3] (0.03 ppm) was 16%. Further, in test [4], the “Efficacy in % (Act = actual efficacy)” value is recorded as 22%.
As to `Cn1cc(C(=O)Nc2ccc(F)cc2-c2ccc(Cl)c(Cl)c2)c(C(F)F)n1` [(I-23), N-(3′,4′-dichloro-5-fluoro-1,1′-biphenyl-2-yl)-3-(difluoromethyl)-1-methyl-1H-pyrazole-4-carboxamide], the “Efficacy in % (Act = actual efficacy)” value in test [4] came out at 22%.
Turning to `OC(Cc1ccccc1Cl)(Cn1nc[nH]c1=S)C1(Cl)CC1` (centres unmarked) [(II-15), prothioconazole], the “Efficacy in % found” value in test [1] turned out to be 58%; in test [2], 33%. Also, in test [4], the “Efficacy in % (Act = actual efficacy)” value amounted to 22%.
Take `CC(C)(C)C(O)(CCc1ccc(Cl)cc1)Cn1cncn1` (centres unmarked) [(II-17), tebuconazole]: the “Efficacy in % (Act = actual efficacy)” value in test [4] is reported as 22%.
`CC(C)C1CCC(Cc2ccc(Cl)cc2)C1(O)Cn1cncn1` (centres unmarked) [(II-18), ipconazole] gave an Efficacy in % in test [3] (0.003 ppm) of 8%.
Regarding `CO/N=C(/C1=NOCCO1)c1ccccc1Oc1ncnc(Oc2ccccc2Cl)c1F` [(III-2), fluoxastrobin], the “Efficacy in % found” value amounted to 50% in test [1] and 39% in test [2]. Moreover, in test [4], the “Efficacy in % (Act = actual efficacy)” value was 22%.
In the case of `CON=C(C(=O)OC)c1ccccc1CON=C(C)c1cccc(C(F)(F)F)c1` [(III-4), trifloxystrobin], in test [3] (0.003 ppm), the Efficacy in % was determined as 1%.
